From US11739261B2, “Fluorescent probes for acid detection” (THE HONG KONG UNIVERSITY OF SCIENCE AND TECHNOLOGY, priority 2019, dated 2023)

Experiment: Acid response study of TPI-C in the aggregation state (PL intensity)
Format: physicochemical
Procedure: FIGS. 1A-1C depict PL spectra of TPI-C (10 μM in THF/hexane mixtures with fH=99%) with adding (1A) HCOOH at different concentrations; (1B) CH3COOH at different concentrations; and (1C) CF3COOH at different concentrations.
FIG. 1D is a graph of relative PL intensity (I/I0) at different acid concentrations (x-axis represents acid concentration at (a) 0 M, (b) 1×10^−20 M, (c) 1×10^−14 M and (d) 1×10^−8 M, respectively).
An acid response study of TPI-C in the aggregation state was performed first. The fluorescent intensity response of TPI-C was investigated by adding different acids with various concentrations. In general, the fluorescent intensity of TPI-C was enhanced upon adding the acid. TPI-C responded in this manner to the formic acid, acetic acid (AcOH) and trifluoroacetic acid (TFA) at concentrations as low as 10^−20 M. For the formic acid, its highest intensity enhancement was around 55% at the acid concentration level of 10^−20 M, as shown in FIG. 1A. When AcOH (1×10^−20 M, 1 μL) and TFA (1×10^−20 M, 1 μL) were added to the TPI-C solution, the intensity enhancement of TPI-C was around 120% (FIG. 1B) and 96% (FIG. 1C), respectively.

In the case of `CCCCCCCCn1c(-c2ccc(OC(=O)NCC)cc2)nc(-c2ccccc2)c1-c1ccccc1` [TPI-C], the fluorescent intensity enhancement (AcOH 1×10^−20 M, 1 μL added to TPI-C solution) is reported as “around 120%”, the fluorescent intensity enhancement (TFA 1×10^−20 M, 1 μL added to TPI-C solution) is reported as roughly 96% and the fluorescent intensity enhancement (formic acid 10^−20 M, TPI-C 10 μM in THF/hexane fH=99%, highest enhancement) is reported as “around 55%”. For the same compound, the “acid concentration at which fluorescent intensity is enhanced (as low as)” value (formic acid, AcOH, TFA) was 10^−20 M.
